Reference: PubChem BioAssay AID179 (DTP/NCI, 2004)
Activity calls are given as the source filed them.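 Rule for the calls: active = compounds giving half or more protection of infected cells from virus-caused growth loss, again on retest; inactive = the rest.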 Where a SMILES comes first, the peptide text is derived from it. The star is where a group is joined. Cbz = O=C(OCc1ccccc1)*

Tested on: CEM cells HIV-1 protection, formazan growth assay
Assay: NCI AIDS Antiviral Assay
Conditions: for IC50: measured here: growth of uninfected CEM cells
Procedure, shortened: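 Human CEM cells, uninfected and HIV-1-infected, exposed to five drug concentrations; growth measured by soluble formazan assay and scored as percent protection from infection, with protecting compounds retested.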

Row | SMILES | EC50 [µM] | IC50 [µM] | outcome
1 | CCOC1(NC(=O)N(C)C)C2CCCC21 (stereo not drawn) | > 200 | > 200 | –
2 | Nc1nncs1 | > 1780 | 871 | –
3 | O=C1NC(=S)S/C1=C\c1cccs1 | > 60.3 | > 60.3 | –
4 | O=C1C[C@@H]([C@H](NC(=O)OCc2ccccc2)C(=O)O)ON1 | – | – | inactive
5 | N#C/C(=C(/c1ccccc1)c1ccccn1)c1ccc(Cl)cc1 | > 2 | 1 | –
6 | O=[As](O)(O)c1ccc(N=Nc2ccc(O)cc2)cc1 | > 200 | 138 | –
7 | C/C=C(\C)c1cc(O)c(C)c2c1Oc1cc(O)c(Cl)c(C)c1C(=O)O2 | – | – | inactive
8 | Cc1ccccc1NP1(=O)OCCCN1Cc1ccc(Cl)c(Cl)c1 (stereo not drawn) | – | – | inactive
9 | O=C1CC2C=CC1C2CO (stereo not drawn) | – | – | inactive
10 | COC(=O)c1ccc(OCc2nc3ccccc3[nH]2)cc1 | > 200 | 75.9 | –
11 | CC(C)NCC(O)c1cc(OCc2ccccc2)c(OCc2ccccc2)cc1NC(=O)CCC(=O)O (stereo not drawn) | > 200 | 1.58 | –
12 | CC(C)(C)N/N=C(\C(=O)NC1=C(Cl)C(=O)c2ccccc2C1=O)C1C=CCS1(=O)=O (stereo not drawn) | > 209 | 12.9 | –
13 | Cc1sc2nc3n(c(=O)c2c1C)N=CN(c1ccccc1)C3 | > 100 | > 100 | –
14 | Cc1cc(C)c(C(=O)c2no[n+]([O-])c2C(=O)c2c(C)cc(C)c(Br)c2C)c(C)c1Br | > 1.95 | > 1.95 | –
15 | O=c1[nH]nc(Cc2ccccc2)n1/N=C\c1ccccc1 | > 200 | > 200 | –
16 | O=C(N/C(=C\c1ccccc1)C1Nc2ccccc2C(=O)O1)c1ccccc1 (stereo not drawn) | > 200 | 17.4 | –
17 | COC(=O)CC(C(C(=O)OC)C(=O)OC)N1C(=O)OC(c2ccccc2)C1c1ccccc1 (stereo not drawn) | 37.2 | 74.1 | –
18 | Cc1ccc(-c2c(C#N)c(-c3ccccc3)c(C#N)c(=O)n2NS(=O)(=O)c2ccccc2)cc1 | > 200 | 69.2 | –
19 | O=C1CCC23/C=C/C(=O)NCCCCNCCCNC(=O)/C=C/c4ccc(c2c4)OC3C1 (stereo not drawn) | > 148 | > 148 | –
20 | CN(C)/C=N/c1nc2ncn(CCOC(=O)c3ccccc3)c2c(=O)[nH]1 | > 708 | > 708 | –
21 | Cc1ccc(S(=O)(=O)Nc2nnc(S(N)(=O)=O)s2)cc1 | > 200 | > 200 | –
22 | COc1ccc(N2C(=O)C3c4[nH]c5cccc(Cl)c5c4C4CCC(C(C)(C)C)CC4C3C2=O)cc1 (stereo not drawn) | > 200 | – | –

Row | SMILES | EC50 [µM] | IC50 [µM] | outcome
23 | CCN(CC)C(=O)c1c(N2CCOCC2)cc(N(CC)CC)oc1=O | > 708 | > 708 | –
24 | O=c1[nH][nH]c(=O)c2c1nc(SCc1ccc(Br)cc1)n2Cc1ccccc1 | > 214 | > 214 | –
25 | O=C1CCC2C(O)c3cc4c(cc3C(c3ccc5c(c3)OCO5)N12)OCO4 (stereo not drawn) | > 200 | > 200 | –
26 | c1cc(-c2nc3sc(-c4ccncc4)nc3s2)ccn1 | > 24.5 | > 24.5 | –
27 | COC(=O)C1CCC(=O)N1CN(C(C)=O)c1cc(OC)ccc1OC (stereo not drawn) | > 200 | > 200 | –
28 | COc1c(C(=O)CC2c3c(cc4oc(C)cc(=O)c4c3OC)OC(=N)C2c2nc3ccccc3[nH]2)c(O)c(OC)c2occc12 (stereo not drawn) | 25.1 | 49 | –
29 | O=C(c1ccc([N+](=O)[O-])cc1)c1no[n+]([O-])c1C(=O)c1ccc([N+](=O)[O-])cc1 | – | – | inactive
30 | COC(=O)c1oc([N+](=O)[O-])c(Cl)c1Cl | > 151 | 0.776 | –
31 | O=C(O)c1cc(O)cc(O)c1CNc1ccc(/C=C\c2ccc(NCc3c(O)cc(O)cc3C(=O)O)cc2S(=O)(=O)O)c(S(=O)(=O)O)c1 | > 87.1 | > 87.1 | –
32 | COC(=O)c1cnc2nc(N3CCOCC3)[nH]n2c1=O | > 12.9 | > 12.9 | –
33 | NC1=CN(Cc2ccccc2)C2=N/C(=C\c3ccccc3)C(=O)N12 | > 200 | 77.6 | –
34 | CCOC(=O)c1cn(CC)c(=O)n2c1nc1ccccc12 | > 200 | 117 | –
35 | Cc1cc(-c2ccccc2)nc(Nc2cc3ccccc3[nH]2)n1 | > 603 | > 603 | –
36 | O=S(=O)(O)c1cc(Cl)cc(Cc2cc(Cl)cc(S(=O)(=O)O)c2O)c1O | – | – | active
37 | Cc1oc2c(c(=O)c1C)CN(Cc1ccccc1)CC2 | > 331 | 275 | –
38 | CCN(CC)c1cc2oc(=O)cc(C)c2cc1[N+](=O)[O-] | > 95.5 | 40.7 | –
39 | CN(C)C12C=CC=CC3=C(c4ccccc4)C(c4ccccc4)=C(c4ccccc4)C31c1ccccc1C2 (stereo not drawn) | > 200 | > 200 | –
40 | C=C[C@@H](C)[C@@H](O)c1c(O)c2c(c3c(CCC)cc(=O)oc13)OC(C)(C)C=C2 | > 200 | 10.7 | –
41 | c1cnc2c3cnc4sccc4c3nn2c1 | > 74.1 | > 74.1 | –
42 | O=C(O/N=C1/CCCC/C1=C\c1ccccc1)c1ccc(Cl)cc1 | – | – | inactive
43 | CCNC(=O)Nc1ccc(Cl)cn1 | > 200 | 132 | –
44 | C1CCC(N=C2N(C3CCCCC3)C(=NC3CCCCC3)N2C2CCCCC2)CC1 | > 9.12 | > 9.12 | –

Row | SMILES | EC50 [µM] | IC50 [µM] | outcome
45 | COc1ccc2ncc(COC(=O)NC3CCCCC3)c(COC(=O)NC3CCCCC3)c2c1 | > 174 | 40.7 | –
46 | O=C(/C(=C/c1ccc(Br)cc1)c1ccccc1)c1ccccc1 | > 14.5 | > 14.5 | –
47 | O=CCc1c2c(nc3ccccc13)C(=O)c1ccccc1C2=O | > 20 | 7.94 | –
48 | CCOC(=O)CC[C@H](NC(=O)c1ccc(CNc2nc3cc(C(F)(F)F)ccc3nc2C(=O)OCC)cc1)C(=O)OCC | > 100 | > 100 | –
49 | Cn1c(=O)c2[nH]c(=O)c(=O)[nH]c2n(C)c1=O | > 200 | > 200 | –
50 | CCCCCCCCCCCCCC(=O)OCC1OC(n2cc(C)c(=O)[nH]c2=O)CC1F (stereo not drawn) | 0.0437 | 120 | –
51 | CC(C)(C)C1CCC2c3c([nH]c4ccccc34)C3C(=O)N(c4ccc(C(=O)O)cc4)C(=O)C3C2C1 (stereo not drawn) | > 200 | 14.5 | –
52 | CCCCCC=C(c1cc(C)c(OC)c(C(=O)OC)c1)c1cc(C)c(OC)c(C(=O)OC)c1 | > 51.3 | 25.7 | –
53 | O=c1sc2ccccc2n1CC1CS1 (stereo not drawn) | > 302 | 11 | –
54 | CCOC(=O)CCC(NC(=O)C(Cc1ccccc1)NC(=O)OCc1ccccc1)C(=O)OCC (stereo not drawn) (Cbz-Phe-Glu(OEt)-OEt; configuration not given here) | > 200 | 9.55 | –
55 | CCOc1cc2c(c(OCC)c1O)CC[C@@H]1[C@@H]2CC[C@]2(C)[C@@H](O)CC[C@@H]12 | > 2 | 0.776 | –
56 | Cc1nc2ccccc2c(=O)n1NC(=S)Nc1cccc(Cl)c1 | > 20.9 | > 20.9 | –
57 | CC(C)(C)CP(CCP(C)(C)=S)CC(C)(C)C | > 44.7 | > 44.7 | –
58 | O=c1c2cc(Br)ccc2n(C2OC(CO)C(O)C(O)C2O)c(=S)n1-c1ccccc1 (stereo not drawn) | > 52.5 | > 52.5 | –
59 | CCOC(=O)C(C)(C)Oc1ccc2c(-c3ccc(Cl)cc3)cc(=O)oc2c1 | > 13.5 | > 13.5 | –
60 | CC(C)=CCC[C@@H](C)C1=C(O)C(Nc2ccccc2F)=C(C)C(=O)C1=O | > 200 | 15.8 | –
61 | O=C(O)c1cc(C(=O)Nc2ccc(C3=NCCN3)cc2)c(C(=O)O)cc1C(=O)Nc1ccc(C2=NCCN2)cc1 | > 200 | > 200 | –
62 | C(=N\Nc1nnc2c(n1)[nH]c1ccccc12)/c1cccnc1 | > 200 | > 200 | –
63 | NC(=O)SCC(=O)Nc1ccc2cccc3c2c1CC3 | – | – | inactive
64 | CCN(CC)CCn1ncc2ccc3c(c(=O)c4cccnc4n3CCN(CC)CC)c21 | > 20 | 0.309 | –
65 | CC(=O)NC1=N/C(=C/c2cc([N+](=O)[O-])ccc2O)CN1C | > 200 | > 200 | –
66 | CC(=O)N1N=C(c2ccc(N=Nc3c(C)nn(-c4ccccc4)c3C)cc2)OC1c1ccc(Cl)cc1 (stereo not drawn) | > 18.6 | > 18.6 | –

Row | SMILES | EC50 [µM] | IC50 [µM] | outcome
67 | CC(=O)OC1(C)C=C/C(=N\S(=O)(=O)c2ccc(C)cc2)c2ccccc21 (stereo not drawn) | > 200 | 9.33 | –
68 | CN(C)c1ccc(NN=C2SC(=Nc3ccccc3)C(=Nc3ccccc3)S2)cc1 | > 200 | 8.13 | –
69 | Cc1cc(-c2ccc(C(=O)C(Cl)(Cl)Cl)[nH]2)on1 | > 200 | 17.8 | –
70 | COc1ccc(/C=C/C(=O)c2sc(-n3nc(-c4ccccc4)cc3-c3ccccc3)nc2C)cc1OC | > 70.8 | 38 | –
71 | COC[C@@H](N=CN1CCc2cc(OC)c(OC)cc2[C@@H]1C)C(C)(C)C | > 513 | 490 | –
72 | Nc1ccc(-c2nc3ccc(Cc4ccc5nc(-c6ccc(N)cc6)oc5c4)cc3o2)cc1 | 107 | > 200 | –
73 | CCCC(C(=O)Nc1cccc2[nH]cnc12)C(=O)OCC (stereo not drawn) | > 200 | 158 | –
74 | O=c1oc2ccccc2c2c1Sc1ccccc1N2 | > 51.3 | > 51.3 | –
75 | CCCC(O)C(=O)C(CCC)N(CC)CC (stereo not drawn) | > 1100 | > 1100 | –
76 | COc1cc(/C=C2/C(=O)N(C(=O)c3ccccc3O)N=C2C)cc(OC)c1OC | > 47.9 | 0.24 | –
77 | CN1CCC(SC2Cc3cc(Cl)ccc3Sc3ccccc32)CC1 (stereo not drawn) | > 69.2 | 12 | –
78 | O=C1Cc2c(-c3ccccc3)cc(-c3ccc(Cl)cc3)nc2-c2ccccc2N1 | > 200 | 93.3 | –
79 | Nc1ncc2ncn(C3CCC(CO)O3)c2n1 (stereo not drawn) | > 200 | > 200 | –
80 | COc1ccc2c(c1)CCc1c-2n(CCN2CCOCC2)c2ccc(OC)cc12 | > 200 | 166 | –
81 | CC(=O)Oc1ccc2cc(-c3ccc(OC(C)=O)c(OC(C)=O)c3)c(=O)oc2c1 | > 200 | 64.6 | –
82 | C/C(=C\CNc1nc(Cl)nc2nc[nH]c12)CO | > 200 | 148 | –
83 | CCOC(=O)NC(Nc1ncccn1)(C(F)(F)F)C(F)(F)F | > 191 | 186 | –
84 | CC1=C(O)C(=O)C(C2=C(O)C(=O)C(C)=C(O)C2=O)=C(O)C1=O | > 263 | 145 | –
85 | CCCOc1cc2c(c3oc(=O)cc(CCC)c13)C(=O)[C@H](C)[C@@H](C)O2 | > 200 | 5.5 | –
86 | O/N=C(\CSSC/C(=N/O)c1ccc(Cl)cc1)c1ccc(Cl)cc1 | > 200 | 10.7 | –
